Measurements as given in the supplement of paper PMC10307832.

compound: Cc1nc(C(=O)NCC(=O)O)c(O)c2ccc(Oc3ccccc3)cc12 [FG-4592] + CC(=O)Nc1cccc(-n2c(=O)n(C3CC3)c(=O)c3c(Nc4ccc(I)cc4F)n(C)c(=O)c(C)c32)c1 [Trametinib] (partner 0.02 µM); experiment: relative viability (nuclei count vs DMSO), 5 days (fraction); higher = more cells survive; details: first compound 0.8 µM
How it was run: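 Relative viability equals treated-well nuclei counts divided by vehicle-well nuclei counts. Counts came from 4× images of lung cancer cell lines grown in 1536-well plates for 5 days after pin-tool dosing on the day after seeding. Dosing used one drug alone or a fixed anchor-drug dose plus five library-drug doses (not always all listed) in √10 steps, and values are medians of duplicate plates.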

| Cell Line | relative viability |
| --- | --- |
| NCI-H1666 | 0.922 |
| LK-2 | 0.628 |
| NCI-H2087 | 0.198 |
| NCI-H2342 | 0.746 |
| SK-MES-1 | 0.521 |
| H3255 | 0.5 |
| COR-L23 | 0.608 |
| COR-L 105 | 0.445 |
| LOU-NH91 | 0.724 |
| ChaGo-K-1 | 0.899 |
| NCI-H2170 | 0.858 |
| NCI-H2405 | 0.507 |
| HOP-62 | 0.353 |
| HCC-44 | 1.1 |
| BEN | 0.783 |
| HCC-78 | 0.741 |

same assay, conditions: first compound 2.53 µM

| Cell Line | relative viability |
| --- | --- |
| NCI-H522 | 0.676 |
| NCI-H727 | 0.357 |
| NCI-H1650 | 0.603 |
| NCI-H1993 | 0.479 |
| SW 1573 | 0.531 |
| NCI-H838 | 0.473 |
| LCLC-103H | 0.684 |
| NCI-H520 | 0.719 |
| NCI-H2126 | 0.534 |
| EMC-BAC-2 | 0.845 |
| NCI-H2085 | 0.629 |
| HCC-366 | 0.361 |
| NCI-H1666 | 0.776 |
| NCI-H596 | 0.842 |
| LK-2 | 0.621 |
| NCI-H2342 | 0.738 |

| Cell Line | relative viability |
| --- | --- |
| SK-MES-1 | 0.623 |
| H3255 | 0.602 |
| COR-L23 | 0.508 |
| COR-L 105 | 0.434 |
| LOU-NH91 | 0.773 |
| ChaGo-K-1 | 0.846 |
| NCI-H2170 | 0.946 |
| NCI-H2405 | 0.587 |
| HOP-62 | 0.392 |
| HCC-44 | 0.991 |
| SW 900 | 0.871 |
| LU99A | 0.503 |
| BEN | 0.879 |
| NCI-H1648 | 0.456 |
| HCC-78 | 0.578 |

same assay, conditions: first compound 8 µM

| Cell Line | relative viability |
| --- | --- |
| NCI-H522 | 0.873 |
| NCI-H727 | 0.38 |
| NCI-H1650 | 0.628 |
| NCI-H1993 | 0.507 |
| SW 1573 | 0.391 |
| NCI-H838 | 0.46 |
| LCLC-103H | 0.69 |
| NCI-H520 | 0.473 |
| NCI-H2126 | 0.476 |
| EMC-BAC-2 | 0.88 |
| NCI-H2085 | 0.516 |
| HCC-366 | 0.271 |
| NCI-H1666 | 0.711 |
| NCI-H596 | 0.564 |
| LK-2 | 0.516 |
| NCI-H2087 | 0.235 |

| Cell Line | relative viability |
| --- | --- |
| NCI-H2342 | 0.641 |
| SK-MES-1 | 0.571 |
| H3255 | 0.532 |
| COR-L23 | 0.355 |
| COR-L 105 | 0.397 |
| LOU-NH91 | 0.748 |
| ChaGo-K-1 | 0.931 |
| NCI-H2170 | 0.637 |
| NCI-H2405 | 0.411 |
| HOP-62 | 0.334 |
| HCC-44 | 1.08 |
| SW 900 | 0.619 |
| LU99A | 0.523 |
| BEN | 0.871 |
| NCI-H1648 | 0.493 |
| HCC-78 | 0.743 |
